Assay results taken from patent publication US20080125414A1, “Method of Treatment” (priority 2002, published 2008).
Several values for one entry are separate records, joined by “and”; a condition that tells them apart may be missing. Identical values can stand only once.

Columns and labels:
Assay type in all cases: in vivo
[1] = system: patients with moderate or severe neuropathic pain; test: Multi-centre, double blind placebo controlled crossover study of devazepide as adjunctive therapy to strong opioids
[2] = system: patients with neuropathic pain; test: Open label multicentre continuation study of devazepide (clinical assessment study); details: devazepide 1.25 mg, 2.5 mg or 5.0 mg twice daily for up to 26 weeks
Description: Patients who took part in the study had pain with a neuropathic element, and were taking regular doses of strong opioids. […] The primary objective of this study was to compare descriptive and visual analogue scale (VAS) assessments of pain and pain relief in patients with neuropathic pain. […] Devazepide treatment was continued for a period of up to six months. During the study patients were required to remain on regular doses of opioids at a dose prescribed by the investigator. Patients were assessed at clinic visits at week 1, week 2 (dose escalation) and thereafter at routine monthly clinic visits. At weekly intervals for the first eight weeks and at monthly intervals thereafter, patients recorded pain and global pain relief using VAS and descriptive pain questionnaires. The questionnaires were returned to the Investigator at the monthly visits. At each clinic visit the Investigator assessed safety and the patients' pain relief, reviewed the dosage, and decided if devazepide treatment should be continued.

[3] = system: patient undergoing opioid therapy; test: Clinical studies of devazepide in combination with an opioid (opioid dose reduction); details: for reduction of opioid dose: clinical studies, devazepide with opioid

CN1C(=O)[C@@H](NC(=O)c2cc3ccccc3[nH]2)N=C(c2ccccc2)c2ccccc21 [devazepide, 3s-(−) 1,3dihydro-3-(2-indolecarbonylamino)-1-methyl-5-phenyl-2H-1,4-benzodiazepin-2-one]
Analgesic use expressed as a percentage of pre-treatment use (sum of daily dose) ([1]; in vivo): 100% and 67%
Analgesic use expressed as a percentage of pre-treatment use (sum of daily dose) ([1]; patient ap06/05, analgesic morphine (mg), devazepide 1.25 mg twice daily for two weeks): 104%
Analgesic use expressed as a percentage of pre-treatment use (sum of daily dose) ([1]; patient ap06/05, analgesic morphine (mg), devazepide 5 mg twice daily for two weeks): 100%
Analgesic use expressed as a percentage of pre-treatment use (sum of daily dose) ([1]; patient ap06/05, analgesic tramadol (mg), devazepide 1.25 mg twice daily for two weeks): 79%
Analgesic use expressed as a percentage of pre-treatment use (sum of daily dose) ([1]; patient ap06/05, analgesic tramadol (mg), devazepide 5 mg twice daily for two weeks): 54%
Analgesic use expressed as a percentage of pre-treatment use (sum of daily dose) ([1]; patient gg01/01, analgesic co-codamol (tablets), devazepide 1.25 mg twice daily for two weeks): 106%
Analgesic use expressed as a percentage of pre-treatment use (sum of daily dose) ([1]; patient gg01/01, analgesic co-codamol (tablets), devazepide 5 mg twice daily for two weeks): 78%
Analgesic use expressed as a percentage of pre-treatment use (sum of daily dose) ([1]; patient gg03/03, analgesic morphine (mg), devazepide 1.25 mg twice daily for two weeks): 55%
Analgesic use expressed as a percentage of pre-treatment use (sum of daily dose) ([1]; patient gg03/03, analgesic morphine (mg), devazepide 5 mg twice daily for two weeks): 93%
Analgesic use expressed as a percentage of pre-treatment use (sum of daily dose) ([1]; patient ng02/02, analgesic diclofenac (mg), devazepide 1.25 mg twice daily for two weeks): 17%
Analgesic use expressed as a percentage of pre-treatment use (sum of daily dose) ([1]; patient ng02/02, analgesic diclofenac (mg), devazepide 5 mg twice daily for two weeks): 50%
Analgesic use expressed as a percentage of pre-treatment use (sum of daily dose) ([1]; patient ng02/02, analgesic morphine (mg), devazepide 1.25 mg twice daily for two weeks): 87%
Analgesic use expressed as a percentage of pre-treatment use (sum of daily dose) ([1]; patient ng02/02, analgesic morphine (mg), devazepide 5 mg twice daily for two weeks): 84%
Analgesic use expressed as a percentage of pre-treatment use (sum of daily dose) ([1]; patient ng05/05, analgesic morphine (mg), devazepide 1.25 mg twice daily for two weeks): 104%
Analgesic use expressed as a percentage of pre-treatment use (sum of daily dose) ([1]; patient ng05/05, analgesic morphine (mg), devazepide 5 mg twice daily for two weeks): 100%
Analgesic use expressed as a percentage of pre-treatment use (sum of daily dose) ([1]; patient ng05/05, analgesic paracetamol (mg), devazepide 1.25 mg twice daily for two weeks): 48%
Analgesic use expressed as a percentage of pre-treatment use (sum of daily dose) ([1]; patient ng05/05, analgesic paracetamol (mg), devazepide 5 mg twice daily for two weeks): 14%
Analgesic use expressed as a percentage of pre-treatment use (sum of daily dose) ([1]; patient sj03/03, analgesic morphine (mg), devazepide 1.25 mg twice daily for two weeks): 93%
Analgesic use expressed as a percentage of pre-treatment use (sum of daily dose) ([1]; patient sj03/03, analgesic morphine (mg), devazepide 5 mg twice daily for two weeks): 97%
Analgesic use expressed as a percentage of pre-treatment use (sum of daily dose) ([1]; patient sj03/03, analgesic morphine (ml), devazepide 1.25 mg twice daily for two weeks): 13%
Analgesic use expressed as a percentage of pre-treatment use (sum of daily dose) ([1]; patient sj03/03, analgesic morphine (ml), devazepide 5 mg twice daily for two weeks): 5%
Analgesic use expressed as a percentage of pre-treatment use (sum of daily dose) ([1]; patient sj10/73, analgesic dihydrocodeine (mg), devazepide 1.25 mg twice daily for two weeks): 100%
Analgesic use expressed as a percentage of pre-treatment use (sum of daily dose) ([1]; patient sj10/73, analgesic dihydrocodeine (mg), devazepide 5 mg twice daily for two weeks): 50%
Analgesic use expressed as a percentage of pre-treatment use (sum of daily dose) ([1]; patient sj10/73, analgesic morphine (mg), devazepide 1.25 mg twice daily for two weeks): 100%
Analgesic use expressed as a percentage of pre-treatment use (sum of daily dose) ([1]; patient sj10/73, analgesic morphine (mg), devazepide 5 mg twice daily for two weeks): 98%
Analgesic use expressed as a percentage of pre-treatment use (sum of daily dose) ([1]; patient sj10/73, analgesic paracetamol (mg), devazepide 1.25 mg twice daily for two weeks): 75%
Analgesic use expressed as a percentage of pre-treatment use (sum of daily dose) ([1]; patient sj10/73, analgesic paracetamol (mg), devazepide 5 mg twice daily for two weeks): 50%
patients who appeared to achieve long-term pain relief ([2]; of seventeen patients, long-term = 5-26 weeks, with regular opioids): ten
daily opioid dose ([2]; several patients): markedly reduced
reduction of opioid dose ([3]; in others): ≤ 75%
reduction of opioid dose ([3]; in some cases): ≤ 95%
effect in combination with an opioid ([3]; opioid dose reduced concurrent with improved analgesia): superpotentiating
